Data on 2 molecules can be found in publication PMC3402595 (Breast Cancer Research and Treatment, 2012).

Series [1] in a line: Precipitation of Olaparib. Format: physicochemical.
For series [2], the target named is T1, BRCT(BRCA1) (Homo sapiens, UniProt P38398). Conditions: systematic structure activity relationship study; ref [3]; cited from earlier work.
For series [3], the target named is T1, BRCT(BRCA1). Nature of the series: Competitive fluorescence polarization, inhibition of BRCT. In kind it is binding.

Where a SMILES comes first, the peptide text is derived from it. [ ]: non-standard residue; d: D form. pS = N[C@@H](COP(=O)(O)O)C(=O)O

T1 sequence (P38398 1646-1859 limits assumed): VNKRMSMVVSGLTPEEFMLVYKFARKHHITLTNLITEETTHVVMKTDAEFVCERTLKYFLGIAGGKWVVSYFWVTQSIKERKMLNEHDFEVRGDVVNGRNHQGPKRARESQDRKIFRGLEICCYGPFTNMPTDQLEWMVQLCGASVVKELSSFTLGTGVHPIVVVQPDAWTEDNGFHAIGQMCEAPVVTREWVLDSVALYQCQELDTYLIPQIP

On to `O=C(c1cc(Cc2n[nH]c(=O)c3ccccc23)ccc1F)N1CCN(C(=O)C2CC2)CC1` [Olaparib], for which the “concentration at which precipitation of Olaparib was observed” value in series [1] is “higher than 25 μM”. A word on the Ki: it is the dissociation constant of the complex between target and ligand, obtained from inhibition or displacement. Read a low Ki as tighter binding. As to `CC(=O)N[C@@H](COP(=O)(O)O)C(=O)N1CCC[C@H]1C(=O)N[C@H](C(=O)N[C@@H](Cc1ccccc1)C(=O)O)[C@@H](C)O` [Inhibitor 1, Ac-pSPTF-CO2H] (Ac-[pS]PTF-OH), at BRCT(BRCA1) [2], the “binding affinity for BRCT(BRCA1)” value is reported as “nanomolar binding affinities”. For the same molecule, the Ki at BRCT(BRCA1) [3] was 230 ± 60 nM.
